Numbers after ± are expanded uncertainties.
Conditions: Liquid; for vapor or sublimation pressure: Closed cell (Static) method; for mass density: determined from pressure vs temperature measurement to find liquid-full point for a closed cell

In the case of `CO[Si](OC)(OC)OC` [silicon tetramethoxide], the “vapor or sublimation pressure” value (334.15 K) is reported as 30 ± 15 kPa, the mass density (334.15 K) is reported as 990 ± 60 kg/m3 and the “vapor or sublimation pressure” value (335.15 K) is reported as 30 ± 15 kPa. The “vapor or sublimation pressure” value (336.15 K) was 30 ± 15 kPa, the “vapor or sublimation pressure” value (337.15 K) was 30 ± 15 kPa and the “vapor or sublimation pressure” value (338.15 K) was 30 ± 15 kPa. The “vapor or sublimation pressure” value (339.15 K) was 30 ± 15 kPa, the “vapor or sublimation pressure” value (341.15 K) was 30 ± 15 kPa and the “vapor or sublimation pressure” value (342.15 K) was 30 ± 17 kPa. The “vapor or sublimation pressure” value (343.15 K) was 30 ± 13 kPa, the “vapor or sublimation pressure” value (344.15 K) was 30 ± 17 kPa and the “vapor or sublimation pressure” value (345.15 K) was 40 ± 17 kPa. The “vapor or sublimation pressure” value (347.15 K) was 40 ± 14 kPa, the “vapor or sublimation pressure” value (348.15 K) was 40 ± 20 kPa and the mass density (348.15 K) was 940 ± 60 kg/m3. The “vapor or sublimation pressure” value (349.15 K) was 40 ± 20 kPa, the “vapor or sublimation pressure” value (351.15 K) was 40 ± 20 kPa and the “vapor or sublimation pressure” value (352.15 K) was 40 ± 20 kPa. For the same compound, the “vapor or sublimation pressure” value (353.15 K) was 40 ± 20 kPa, the “vapor or sublimation pressure” value (355.15 K) was 40 ± 17 kPa and the “vapor or sublimation pressure” value (356.15 K) was 40 ± 17 kPa. For the same compound, the “vapor or sublimation pressure” value (357.15 K) was 50 ± 13 kPa, the “vapor or sublimation pressure” value (358.15 K) was 50 ± 17 kPa and the “vapor or sublimation pressure” value (359.15 K) was 50 ± 17 kPa. For the same compound, the “vapor or sublimation pressure” value (361.15 K) was 50 ± 25 kPa, the “vapor or sublimation pressure” value (362.15 K) was 50 ± 25 kPa and the “vapor or sublimation pressure” value (363.15 K) was 50 ± 14 kPa. The “vapor or sublimation pressure” value (364.15 K) was 50 ± 16 kPa, the “vapor or sublimation pressure” value (365.15 K) was 50 ± 17 kPa and the mass density (365.15 K) was 920 ± 60 kg/m3. For the same compound, the “vapor or sublimation pressure” value (366.15 K) was 60 ± 18 kPa, the “vapor or sublimation pressure” value (368.15 K) was 60 ± 18 kPa and the “vapor or sublimation pressure” value (369.15 K) was 60 ± 31 kPa. The “vapor or sublimation pressure” value (370.15 K) was 60 ± 15 kPa, the “vapor or sublimation pressure” value (371.15 K) was 60 ± 18 kPa and the “vapor or sublimation pressure” value (372.15 K) was 60 ± 18 kPa. For the same compound, the “vapor or sublimation pressure” value (373.1 K) was 70 ± 15 kPa, the “vapor or sublimation pressure” value (374.15 K) was 70 ± 18 kPa and the “vapor or sublimation pressure” value (375.15 K) was 70 ± 34 kPa. The “vapor or sublimation pressure” value (377.15 K) was 70 ± 18 kPa, the “vapor or sublimation pressure” value (378.15 K) was 80 ± 18 kPa and the “vapor or sublimation pressure” value (379.15 K) was 80 ± 29 kPa. For the same compound, the “vapor or sublimation pressure” value (380.15 K) was 80 ± 29 kPa, the “vapor or sublimation pressure” value (381.15 K) was 80 ± 18 kPa and the “vapor or sublimation pressure” value (382.15 K) was 90 ± 19 kPa. For the same compound, the mass density (383.15 K) was 900 ± 50 kg/m3, the “vapor or sublimation pressure” value (384.15 K) was 90 ± 35 kPa and the “vapor or sublimation pressure” value (385.15 K) was 90 ± 19 kPa. The “vapor or sublimation pressure” value (386.15 K) was 90 ± 15 kPa, the “vapor or sublimation pressure” value (387.15 K) was 100 ± 19 kPa and the “vapor or sublimation pressure” value (388.15 K) was 100 ± 35 kPa. The mass density (389.15 K) was 880 ± 50 kg/m3, the “vapor or sublimation pressure” value (390.15 K) was 100 ± 19 kPa and the “vapor or sublimation pressure” value (391.15 K) was 110 ± 35 kPa. The “vapor or sublimation pressure” value (392.15 K) was 110 ± 30 kPa, the “vapor or sublimation pressure” value (393.15 K) was 110 ± 45 kPa and the “vapor or sublimation pressure” value (394.15 K) was 120 ± 35 kPa. For the same compound, the “vapor or sublimation pressure” value (395.15 K) was 120 ± 35 kPa, the “vapor or sublimation pressure” value (397.15 K) was 130 ± 36 kPa and the “vapor or sublimation pressure” value (398.15 K) was 130 ± 36 kPa. The “vapor or sublimation pressure” value (399.15 K) was 130 ± 40 kPa, the “vapor or sublimation pressure” value (400.15 K) was 140 ± 36 kPa and the “vapor or sublimation pressure” value (401.15 K) was 140 ± 36 kPa. For the same compound, the “vapor or sublimation pressure” value (403.15 K) was 150 ± 37 kPa, the “vapor or sublimation pressure” value (404.15 K) was 150 ± 52 kPa and the “vapor or sublimation pressure” value (405.15 K) was 160 ± 46 kPa. The “vapor or sublimation pressure” value (406.15 K) was 160 ± 52 kPa, the mass density (406.15 K) was 850 ± 50 kg/m3 and the “vapor or sublimation pressure” value (407.15 K) was 170 ± 45 kPa. For the same compound, the “vapor or sublimation pressure” value (408.15 K) was 170 ± 37 kPa, the “vapor or sublimation pressure” value (409.15 K) was 180 ± 53 kPa and the “vapor or sublimation pressure” value (411.15 K) was 180 ± 53 kPa. The “vapor or sublimation pressure” value (412.15 K) was 190 ± 38 kPa, the “vapor or sublimation pressure” value (413.15 K) was 190 ± 42 kPa and the “vapor or sublimation pressure” value (414.15 K) was 200 ± 54 kPa. For the same compound, the “vapor or sublimation pressure” value (415.15 K) was 200 ± 54 kPa, the mass density (415.15 K) was 840 ± 50 kg/m3 and the “vapor or sublimation pressure” value (417.15 K) was 210 ± 54 kPa. For the same compound, the “vapor or sublimation pressure” value (418.15 K) was 220 ± 55 kPa, the “vapor or sublimation pressure” value (419.15 K) was 220 ± 61 kPa and the “vapor or sublimation pressure” value (420.15 K) was 230 ± 61 kPa. The “vapor or sublimation pressure” value (421.15 K) was 230 ± 55 kPa, the “vapor or sublimation pressure” value (422.15 K) was 240 ± 71 kPa and the “vapor or sublimation pressure” value (424.15 K) was 250 ± 71 kPa. For the same compound, the “vapor or sublimation pressure” value (425.15 K) was 260 ± 71 kPa, the “vapor or sublimation pressure” value (426.15 K) was 260 ± 62 kPa and the “vapor or sublimation pressure” value (427.15 K) was 270 ± 72 kPa. The “vapor or sublimation pressure” value (428.15 K) was 280 ± 63 kPa, the “vapor or sublimation pressure” value (429.15 K) was 280 ± 72 kPa and the “vapor or sublimation pressure” value (430.15 K) was 290 ± 73 kPa.

From the NIST ThermoML archive (doi:10.1021/je700443d)
